# Experimental data from US6875761B2 (Eisai Co., Ltd., priority 1997, dated 2005).
# Structures can show the parent of a compound that is named as a salt.
row,SMILES,melting point
1,"CCC/C(=N\O)c1ccc(-c2cc3ccccc3c(N3CCN(CC)CC3)n2)cc1 (as salt: oxalate) [Example 380, 1-(4-Ethylpiperazin-1-yl)-3-[4-(1-Hydroxyiminobutyl)Phenyl]Isoquinoline]",179.5 to 180 °C
2,"CCN1CCN(c2nc(/C=C/c3cccc(N4CCOCC4)c3)cc3ccccc23)CC1 (as salt: oxalate) [Example 204, 3-{(E)-2-[3-(4-Morpholinyl)Phenyl]Ethenyl}-1-(4-Ethylpiperazin-1-Yl)Isoquinoline Oxalate]",180 to 182 °C
3,"CCN1CCN(c2nc(-c3ccc(CCCO)c(Cl)c3)cc3ccccc23)CC1 (as salt: hydrochloride) [Example 30, 3-[3-chloro-4-(3-hydroxypropyl)phenyl]-1-(4-ethylpiperazin-1-yl)isoquinoline hydrochloride]",123 to 124 °C
4,CCN1CCN(c2nc(-c3ccccc3)cc3ccc(OC)cc23)CC1 (as salt: hydrochloride),130 to 132 °C
5,"CCN1CCN(c2nc(-c3ccc(CCC(C)(C)O)c(F)c3)cc3ccccc23)CC1 (as salt: hydrochloride) [Example 416, 1-(4-ethylpiperazin-1-yl)-3-[4-(3-hydroxy-3-methylbutyl)-3-fluorophenyl]isoquinoline]",206 to 207 °C
6,"CCN1CCN(c2nc(-c3ccc(C4=CCC(O)CC4)cc3)cc3ccccc23)CC1 (centres unmarked) (as salt: hydrochloride) [Example 64, 3-[4-(4-Hydroxy-1-Cyclohexen-1-Yl)Phenyl]-1-(4-Ethylpiperazin-1-Yl)Isoquinoline Hydrochloride]",164 to 166 °C
7,"CCN1CCN(c2nc(-c3ccc(OCCO)c(C)c3)cc3ccccc23)CC1 (as salt: hydrochloride) [Example 40, 3-[3-methyl-4-(2-hydroxyethoxy)phenyl]-1-(4-ethylpiperazin-1-yl)isoquinoline hydrochloride]",133 to 136 °C
8,CCN1CCN(c2nc(-c3ccccc3OC)cc3ccccc23)CC1 (as salt: hydrochloride),133 to 135 °C
9,CCN1CCN(c2nc(C(O)c3ccccc3OC)cc3ccccc23)CC1 (centres unmarked) (as salt: oxalate),100 to 103 °C
10,CCN1CCN(c2nc(-c3ccc(CCCO)c(F)c3)cc3ccccc23)CC1 (as salt: hydrochloride) [Example 29],126 to 127 °C (dec.)
11,"CCN1CCN(c2nc(C3=CCCc4cc(OC)ccc43)cc3ccccc23)CC1 (as salt: oxalate) [Example 117, 3-(7-Methoxy-1,2-dihydronaphthalen-4-yl)-1-(4-ethylpiperazin-1-yl)isoquinoline Oxalate]",112 to 114 °C
12,"CCN1CCN(c2nc(-c3ccc(N4CC[S+]([O-])CC4)nc3)cc3ccccc23)CC1 (as salt: hydrochloride) [Example 151, 1-(4-ethylpiperazin-1-yl)-3-[2-(S-oxythiomorpholin-4-yl)pyridin-5-yl]isoquinoline trihydrochloride]",170 °C

# Next, values leading:
row,melting point,SMILES
1,146 to 148 °C,"CCN1CCN(c2nc(-c3ccc([C@@H]4C[C@@H](O)CCO4)cc3)cc3ccsc23)CC1 (relative stereo) (as salt: hydrochloride) [Example 455, 7-(4-ethylpiperazin-1-yl)-5-[4-(trans-4-hydroxytetrahydropyran-2-yl)phenyl]thieno[2,3-c]pyridine dihydrochloride]"
2,222 °C (dec.),"CCN1CCN(c2nc(-c3ccc(OC)cc3)cc3ccncc23)CC1 (as salt: hydrochloride) [Example 428, 1-(4-ethylpiperazin-1-yl)-3-(4-methoxyphenyl)-7-azaisoquinoline]"
3,126 to 127 °C,"CCN1CCN(c2nc(-c3ccc(O[C@@H](C)CO)cc3)cc3ccsc23)CC1 (as salt: hydrochloride) [Example 438, 7-(4-ethylpiperazin-1-yl)-5-[4-(1-methyl-2-hydroxyethoxy)phenyl]thieno[2,3-c]pyridine dihydrochloride]"
4,126 to 127 °C,"CCN1CCN(c2nc(-c3ccc(OC[C@@H](C)O)cc3)cc3ccsc23)CC1 (as salt: hydrochloride) [Example 435, 7-(4-ethylpiperazin-1-yl)-5-[4-(2-hydroxypropoxy)phenyl]thieno[2,3-c]pyridine dihydrochloride]"
5,112 to 113 °C,"CCN1CCN(c2nc(-c3ccc(CCCO)cc3)cc3ccsc23)CC1 (as salt: hydrochloride) [Example 432, 7-(4-ethylpiperazin-1-yl)-5-[4-(3-hydroxypropyl)phenyl]thieno[2,3-c]pyridine hydrochloride]"
6,201 to 203 °C,"CCN1CCN(c2nc(-c3ccc(N4CCSCC4)nc3)cc3ccsc23)CC1 (as salt: hydrochloride) [Example 264, 5-[2-(4-thiomorpholinyl)pyridin-5-yl]-7-(4-ethylpiperazine-1-yl)thieno[2,3-c]pyridine Hydrochloride]"
7,127 to 132 °C,"CCN1CCN(c2nc(-c3ccc(OCC(C)(C)O)cc3)cc3cccnc23)CC1 (as salt: hydrochloride) [Example 250, 8-(1-ethylpiperazin-4-yl)-6-[4-(2-hydroxy-2-methylpropoxy)phenyl]-1,7-naphthyridine Dihydrochloride]"
8,135.5 to 136 °C,"CCN1CCN(c2nc(-c3ccc(C(C)O)cc3)cc3ccccc23)CC1 (centres unmarked) (as salt: hydrochloride) [Example 348, 1-(4-ethylpiperazin-1-yl)-3-[4-(1-hydroxyethyl)phenyl]isoquinoline dihydrochloride]"
9,157 to 158 °C (dec.),"CCN1CCN(c2nc(-c3ccc([C@H]4CC[C@H](O)CC4)cc3)cc3ccccc23)CC1 (as salt: hydrochloride) [Example 398, 1-(4-Ethylpiperazin-1-yl)-3-[4-(trans-4-Hydroxycyclohexyl)Phenyl]Isoquinoline Dihydrochloride]"
10,199.5 to 200.5 °C (dec.),"CCCN(C)S(=O)(=O)c1ccc(-c2cc3ccccc3c(N3CCN(CC)CC3)n2)cc1 (as salt: hydrochloride) [Example 358, 1-(4-ethylpiperazin-1-yl)-3-[4-(N-methyl-N-propylsulfamoyl)phenyl]isoquinoline dihydrochloride]"
11,142 to 143 °C,"CCNC(=O)c1ccc(-c2cc3ccsc3c(N3CCN(CC)CC3)n2)cc1 (as salt: hydrochloride) [Example 448, 7-(4-ethylpiperazin-1-yl)-5-[4-(N-ethylcarbamoyl)phenyl]thieno[2,3-c]pyridine dihydrochloride]"
12,136 to 138.5 °C,"CCN1CCN(c2nc(-c3ccc(S(=O)(=O)NCCO)cc3)cc3ccccc23)CC1 (as salt: hydrochloride) [Example 347, 1-(4-ethylpiperazin-1-yl)-3-{4-[N-(2-hydroxyethyl)sulfamoyl]phenyl}isoquinoline dihydrochloride]"
13,113 to 114 °C,"CCN1CCN(c2nc(-c3ccc(CC(C)(C)CO)cc3)cc3ccsc23)CC1 (as salt: hydrochloride) [Example 442, 7-(4-ethylpiperazin-1-yl)-5-[4-(3-hydroxy-2,2-dimethylpropyl)phenyl]thieno[2,3-c]pyridine dihydrochloride]"
14,174 to 176 °C,"CCN1CCN(c2nc(-c3ccc(CC(C)O)cc3)cc3ccccc23)CC1 (centres unmarked) (as salt: oxalate) [Example 376, 1-(4-ethylpiperazin-1-yl)-3-[4-(2-hydroxypropyl)phenyl]isoquinoline oxalate]"
